Values quoted from earlier work in patent US6359007B1 (ChronoRX, LLC, priority 1999, dated 2002).
Read-outs that look alike come from different tables or passages of the source. Values belong to the molecule of their own block, whether it stands above or below them.

Key:
[1] = stomach in the "fed" state
[2] = per meal, curvilinear falloff
[3] = not given; remark: listed apart in the source
[4] = in vivo

Structure (SMILES): O=C1O[C@H]([C@@H](O)CO)C(O)=C1O [AA, ascorbic acid]
mean steady state plasma concentration (daily oral dose 200 mg): 12 mg/L | mean steady state plasma concentration (daily oral dose 2500 mg): 15 mg/L

Structure (SMILES): [Mg+2] [Mg^+2, Magnesium]
maximum bolus absorption [2]: 8 meq

Structure (SMILES): [Zn+2] [Zn^+2, Zinc]
increase of mean plasma Zn^+2 above pre-load levels ([3]; 11-fold increase in Zn^+2 intake): About 37% | Zn^+2 absorption ([3]; in vivo): 40% to 86 | ingested Zn^+2 entering the plasma ([3]; in vivo): About 37% | time by which gastrointestinal absorption is essentially complete ([3]; in vivo): ≤ 4 h

More lines, now with the values ahead:

gastrointestinal uptake of dietary arginine [1]: about 38%
Structure (SMILES): N=C(N)NCCC[C@H](N)C(=O)O [L-arginine]

Absorption (via carrier-mediated transport) [4]: 30-40% | absorption of ingested Cu^+2 [4]: 30-40%
Structure (SMILES): [Cu+2] [Cu^+2, Copper]
